In the NIST ThermoML archive (doi:10.1016/j.jct.2016.03.030):

Assay: xn = mol fraction of the nth substance listed
Settings: 100 kPa, Liquid; for viscosity: Falling or rolling sphere viscometry; for mass density: Vibrating tube method

CCC[N+]1(C)CCOCC1.[Br-] [4-methyl-4-propylmorpholinium bromide] + O
Settings | mass density [kg/m3] | viscosity [mPa·s]
298.15 K, x1 = 0.0336 | 1084.6 | 1.651
298.15 K, x1 = 0.0618 | 1135.4 | 2.638
298.15 K, x1 = 0.0875 | 1170.4 | 4.066
298.15 K, x1 = 0.1298 | 1213 | 8.208
298.15 K, x1 = 0.1709 | 1242.8 | 15.89
298.15 K, x1 = 0.2036 | 1260.9 | 26.67
298.15 K, x1 = 0.254 | 1282.4 | 62.45
298.15 K, x1 = 0.2742 | 1289.4 | 90.09
298.15 K, x1 = 0.3025 | 1298.2 | 154
303.15 K, x1 = 0.0336 | 1082.5 | 1.45
303.15 K, x1 = 0.0618 | 1132.9 | 2.291
303.15 K, x1 = 0.0875 | 1167.6 | 3.483
303.15 K, x1 = 0.1298 | 1209.9 | 6.823
303.15 K, x1 = 0.1709 | 1239.6 | 12.9
303.15 K, x1 = 0.2036 | 1257.7 | 20.98
303.15 K, x1 = 0.254 | 1279.2 | 46.52
303.15 K, x1 = 0.2742 | 1286.1 | 66.14
303.15 K, x1 = 0.3025 | 1294.9 | 108.8
308.15 K, x1 = 0.0336 | 1080.2 | 1.281
308.15 K, x1 = 0.0618 | 1130.2 | 2.002
308.15 K, x1 = 0.0875 | 1164.7 | 3
308.15 K, x1 = 0.1298 | 1206.8 | 5.723
308.15 K, x1 = 0.1709 | 1236.4 | 10.62
308.15 K, x1 = 0.2036 | 1254.4 | 16.76
308.15 K, x1 = 0.254 | 1275.9 | 35.35
308.15 K, x1 = 0.2742 | 1282.8 | 49.51
308.15 K, x1 = 0.3025 | 1291.6 | 79.28
313.15 K, x1 = 0.0336 | 1077.8 | 1.14
313.15 K, x1 = 0.0618 | 1127.5 | 1.761
313.15 K, x1 = 0.0875 | 1161.7 | 2.61
313.15 K, x1 = 0.1298 | 1203.6 | 4.854
313.15 K, x1 = 0.1709 | 1233.1 | 8.847
313.15 K, x1 = 0.2036 | 1251.1 | 13.62
313.15 K, x1 = 0.254 | 1272.6 | 27.4
313.15 K, x1 = 0.2742 | 1279.5 | 38.4
313.15 K, x1 = 0.3025 | 1288.3 | 59.26
318.15 K, x1 = 0.0336 | 1075.3 | 1.02
318.15 K, x1 = 0.0618 | 1124.7 | 1.559
318.15 K, x1 = 0.0875 | 1158.7 | 2.287
318.15 K, x1 = 0.1298 | 1200.4 | 4.155
318.15 K, x1 = 0.1709 | 1229.9 | 7.459
318.15 K, x1 = 0.2036 | 1247.8 | 11.23
318.15 K, x1 = 0.254 | 1269.2 | 21.7
318.15 K, x1 = 0.2742 | 1276.2 | 30.07
318.15 K, x1 = 0.3025 | 1285.1 | 45.23
323.15 K, x1 = 0.0336 | 1072.3 | 0.909
323.15 K, x1 = 0.0618 | 1121.8 | 1.372
323.15 K, x1 = 0.0875 | 1155.7 | 1.988
323.15 K, x1 = 0.1298 | 1197.2 | 3.541
323.15 K, x1 = 0.1709 | 1226.6 | 6.268
323.15 K, x1 = 0.2036 | 1244.5 | 9.267
323.15 K, x1 = 0.254 | 1265.9 | 17.23
323.15 K, x1 = 0.2742 | 1272.9 | 23.66
323.15 K, x1 = 0.3025 | 1281.7 | 34.94
328.15 K, x1 = 0.0336 | 1069.9 | 0.812
328.15 K, x1 = 0.0618 | 1118.8 | 1.215
328.15 K, x1 = 0.0875 | 1152.5 | 1.742
328.15 K, x1 = 0.1298 | 1193.9 | 3.047
328.15 K, x1 = 0.1709 | 1223.2 | 5.322
328.15 K, x1 = 0.2036 | 1241.1 | 7.756
328.15 K, x1 = 0.254 | 1262.6 | 13.96
328.15 K, x1 = 0.2742 | 1269.5 | 19.1
328.15 K, x1 = 0.3025 | 1278.4 | 27.52
333.15 K, x1 = 0.0336 | 1066.3 | 0.736
333.15 K, x1 = 0.0618 | 1115.5 | 1.088
333.15 K, x1 = 0.0875 | 1149.1 | 1.547
333.15 K, x1 = 0.1298 | 1190.6 | 2.654
333.15 K, x1 = 0.1709 | 1219.9 | 4.582
333.15 K, x1 = 0.2036 | 1237.8 | 6.587
333.15 K, x1 = 0.254 | 1259.2 | 11.53
333.15 K, x1 = 0.2742 | 1266.2 | 15.71
333.15 K, x1 = 0.3025 | 1275.1 | 22.11
338.15 K, x1 = 0.0336 | 1064.5 | 0.668
338.15 K, x1 = 0.0618 | 1113.1 | 0.979
338.15 K, x1 = 0.0875 | 1145.3 | 1.378
338.15 K, x1 = 0.1298 | 1187.3 | 2.426
338.15 K, x1 = 0.1709 | 1216.5 | 4.142
338.15 K, x1 = 0.2036 | 1234.4 | 5.636
338.15 K, x1 = 0.254 | 1255.9 | 9.633
338.15 K, x1 = 0.2742 | 1262.9 | 12.97
338.15 K, x1 = 0.3025 | 1271.7 | 18.05
343.15 K, x1 = 0.0336 | 1061.9 | 0.63
343.15 K, x1 = 0.0618 | 1110.2 | 0.925
343.15 K, x1 = 0.0875 | 1142 | 1.303
343.15 K, x1 = 0.1298 | 1183.9 | 2.269
343.15 K, x1 = 0.1709 | 1213.1 | 4.062
343.15 K, x1 = 0.2036 | 1231 | 4.879
343.15 K, x1 = 0.254 | 1252.5 | 8.213
343.15 K, x1 = 0.2742 | 1259.5 | 10.96
343.15 K, x1 = 0.3025 | 1268.4 | 14.99
